Assay results reported in patent publication US20240065982A1 (priority 2020, published 2024).

Assay: Clearance of ionizable lipid from the mouse lung following chamber nebulization of mRNA LNP (LC-MS)
Assay type: in vivo
Method: On the day of dosing the LNP formulations were diluted to 1.2 mg/mL with PBS and 1.25 mL (1.5 mg dose) of these solutions are placed in Aerogen Solo nebulizer units which sit in a housing attached to a mouse chamber of dimensions 9″×4″×5″ (1×w×h) with a carbon filter attached. Six (6) Balb/C mice are dosed in the chamber at a time. An airflow of 1.5 L/min was forced through the nebulizer housing unit and the nebulizer turned on. During nebulization, some of the LNP condensed from the nebulizer and was collected and passed back through the nebulizer. This continued until no condensate was collected. Upon nebulization to dryness, the mice remained in the chamber for an extra 1-2 min until the LNP vapor dissipated. Complete nebulization of the LNP typically took ˜15 min. At each time points of 0.25 h (immediately after nebulization), 1 h, 6 h and 24 h, three (3) animals per formulation were euthanized with a lethal dosage of ketamine/xylazine and the lungs were excised and cut into ˜100 mg sections. These were placed in FastPrep tubes, fast frozen in liquid N2, and stored at […] until LC-MS analysis.
To the lung sections were added 5 volumes of PBS (e.g. to 50 mg of lung added 250 μL of PBS). These were then homogenized in a FastPrep instrument using 3 cycles of 15 sec each, with a speed of 5.0 m/s and were centrifuged at low speed. Spiked lung homogenate standards were prepared for each cationic lipid (103, 101 and 102) using the lung homogenates of mice dosed with PBS. For each cationic lipid, 10 standards were prepared: the highest standard at a concentration of 12,500 ng/mL with serial dilution by ½ down to 24.4 ng/mL. 20 μL of the homogenates (samples and standards) was added to 225 μL of ISS (IPA containing 100 ng/mL 1-B11 internal standard) in 96-well plates. The plates were mixed by pipetting up and down and were centrifuged at 2500 rpm for 15 min. The supernatant from these extractions were analyzed by LC-MS. By comparing the signal obtained for each sample to the appropriate standard curves for each cationic lipid (103, 101 and 102), the ng/mL of cationic lipid in each homogenate was determined. These values were then normalized to the exact mass of lung tissue that was analyzed. For the Non-biodegradable cationic lipid, the resulting average (n=3) ng 103/g of lung values were plotted without any further manipulation. For the Hydrolyzable cationic lipid, the ng/g of lung values at each time point for both 101 and 102 were combined to give the average (n=3) ng cationic lipid/g of lung values.

[1] = 24 h post administration, nebulized mRNA LNP, mice

Row | SMILES | fate of the lipid in the lungs by 24 h, in words [1] | % Cationic Lipid Remaining (Balb/C, mouse, in vivo) | % Cationic Lipid Remaining (Balb/C, mouse, in vivo, 1 h) | % Cationic Lipid Remaining (Balb/C, mouse, in vivo, 6 h) | % Cationic Lipid Remaining (Balb/C, mouse, in vivo, 24 h) | fate of the lipid in the lungs by 24 h, in words (Balb/C, mouse, in vivo, 24 h)
1 | CCCCC/C=C\CCCO[Si](CCCCN(C)C)(OCCC/C=C\CCCCC)OCCC/C=C\CCCCC [Example 101] | close to complete lipid hydrolysis |  |  |  |  | 
2 | CCCCC/C=C\CCCO[Si](CCCCN(C)CCO)(OCCC/C=C\CCCCC)OCCC/C=C\CCCCC [Example 102] | close to complete lipid hydrolysis |  |  |  |  | 
3 | CCCCC/C=C\CCCC(CCC/C=C\CCCCC)C(CCC/C=C\CCCCC)OC(=O)CCCCN(C)C (stereo not shown) [Example 103] |  | 100% | 120% | 90% | 94% | remained in the lungs for the complete 24 h
